The values below come from US6500853B1, “Inhibitors of phospholipase enzymes” (Genetics Institute, LLC, priority 1998, dated 2002).

In assay [1] the test system is Rat Carrageenan-Induced Footpad Edema. Description: Rat Carrageenan-Induced Footpad Edema Test. Format: in vivo, male Sprague Dawley rats. The settings on record: Rattus norvegicus, 3 h, footpad volume 3 hours after carrageenan, read-out: PERCENT INHIBITION; for inhibition in vivo at 5 mg/kg: iv, IV. A general note: Carrageenan injected into the paw causes an acute inflammation.

A further assay deals with T1, cPLA2 (Homo sapiens, UniProt P47712).
T1 sequence (P47712 1-749): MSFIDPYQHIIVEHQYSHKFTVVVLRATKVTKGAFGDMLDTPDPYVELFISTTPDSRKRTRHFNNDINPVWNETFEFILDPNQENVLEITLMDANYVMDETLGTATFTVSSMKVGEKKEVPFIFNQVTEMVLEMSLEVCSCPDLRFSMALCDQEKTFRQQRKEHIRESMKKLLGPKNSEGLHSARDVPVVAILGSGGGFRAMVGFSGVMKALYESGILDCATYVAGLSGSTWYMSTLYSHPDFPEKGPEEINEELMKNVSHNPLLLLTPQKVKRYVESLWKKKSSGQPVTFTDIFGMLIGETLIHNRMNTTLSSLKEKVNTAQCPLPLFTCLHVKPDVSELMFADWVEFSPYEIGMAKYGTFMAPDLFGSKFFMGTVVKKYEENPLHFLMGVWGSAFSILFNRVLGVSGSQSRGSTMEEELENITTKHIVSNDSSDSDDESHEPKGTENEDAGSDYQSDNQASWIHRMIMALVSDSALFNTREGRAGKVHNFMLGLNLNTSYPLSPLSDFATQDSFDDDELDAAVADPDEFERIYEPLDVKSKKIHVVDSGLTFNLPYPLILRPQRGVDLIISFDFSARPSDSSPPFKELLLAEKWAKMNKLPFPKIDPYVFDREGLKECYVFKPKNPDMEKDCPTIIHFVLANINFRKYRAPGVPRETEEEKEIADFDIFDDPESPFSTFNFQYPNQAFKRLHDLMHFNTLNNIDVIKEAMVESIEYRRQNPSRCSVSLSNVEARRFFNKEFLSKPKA
Nature of the assay: Coumarin Assay (cPLA2 inhibition). Format: biochemical. The settings on record: read-out: PERCENT INHIBITION @; for inhibition at 2.5 µM: CONCENTRATION 2.5 micromolar; for inhibition at 6.25 µM: CONCENTRATION 6.25 micromolar. In a few lines:
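Percent inhibition at the stated concentration, from the rate of 460 nm emission rise (360 nm excitation) per minute. Reaction started by adding 4 μg enzyme to compound and 60 μM 7-hydroxycoumarinyl 6-heptenoate in Hepes buffer pH 7.5 with 1 mM EDTA.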

What is called inhibition is the relative decrease from the control value, in per cent. Take `O=C(O)CC1C(=O)NCCN1Cc1cn(C(c2ccccc2)c2ccccc2)c2ccc(NC(=O)C3CCCC3)cc12` (stereo not drawn) [Example 67, 2-[1-({1-benzhydryl-5-[(cyclopentylcarbonyl)amino]-1H-indol-3-yl}methyl)-3-oxo-2-piperazinyl]acetic acid]: in assay [1], the inhibition in vivo at 5 mg/kg was 10.8%. Besides, at cPLA2 (CONCENTRATION 100 micromolar), the inhibition at 100 µM was 8%. Also, the inhibition at 400 µM at cPLA2 (CONCENTRATION 400 micromolar) worked out at 31%.

On to `COc1cc(C(=O)NS(=O)(=O)C(F)(F)F)ccc1Cc1cn(C(c2ccccc2)c2ccccc2)c2ccc(NS(=O)(=O)Cc3ccccc3)cc12` [Example 45, N-[4-({1-benzhydryl-5-[(benzylsulfonyl)amino]-1H-indol-3-yl}methyl)-3-methoxybenzoyl](trifluoro)methanesulfonamide], for which, in assay [1], the inhibition in vivo at 5 mg/kg amounted to 10.2%. In addition, at cPLA2 (CONCENTRATION 1.75 micromolar), the inhibition at 1.75 µM was 50%. Moreover, at cPLA2 (CONCENTRATION 1.8 micromolar), the inhibition at 1.8 µM was determined as 50%. At cPLA2 (CONCENTRATION 1.9 micromolar), the inhibition at 1.9 µM stood at 50%. For the same compound, the inhibition at 2 µM on cPLA2 (CONCENTRATION 2 micromolar) was found to be 50%. The inhibition at 2.1 µM on cPLA2 (CONCENTRATION 2.1 micromolar) came to 50%. The inhibition at 2.5 µM on cPLA2 stood at 74%.

`COc1cc(-c2nnn[nH]2)ccc1Cc1cn(C(c2ccccc2)c2ccccc2)c2ccc(NC(=O)OC3CCCC3)cc12` [Example 98, cyclopentyl N-{1-benzhydryl-3-[2-methoxy-4-(1H-1,2,3,4-tetraazol-5-yl)benzyl]-1H-indol-5-yl}carbamate]: the inhibition in vivo at 5 mg/kg in assay [1] was found to be 18.4%. Also, the inhibition at 4.8 µM at cPLA2 (CONCENTRATION 4.8 micromolar) turned out to be 50%. Moreover, the inhibition at 6.25 µM at cPLA2 was 66%. In addition, the inhibition at 8.7 µM at cPLA2 (CONCENTRATION 8.7 micromolar) was determined as 50%.

Consider `COc1cc(C(=O)O)ccc1Cc1cn(C(c2ccccc2)c2ccccc2)c2ccc(Br)cc12` [Example 13, 4-[(1-benzhydryl-5-bromo-1H-indol-3-yl)methyl]-3-methoxybenzoic acid], for which the inhibition in vivo at 2 mg/kg in assay [1] (po, PO, 2 mg/Kg) was determined as 26%. Moreover, in assay [1] (po, PO, 10 mg/Kg), the inhibition in vivo at 10 mg/kg was 23.6%. In addition, the inhibition at 0.39 µM on cPLA2 (CONCENTRATION 0.39 micromolar) stood at 50%. Moreover, the inhibition at 0.4 µM at cPLA2 (CONCENTRATION 0.4 micromolar) is 50%. Moreover, the inhibition at 0.48 µM at cPLA2 (CONCENTRATION 0.48 micromolar) stood at 50%. The inhibition at 0.55 µM on cPLA2 (CONCENTRATION 0.55 micromolar) is 50%. Further, the inhibition at 0.6 µM at cPLA2 (CONCENTRATION 0.6 micromolar) was determined as 50%. The inhibition at 0.65 µM on cPLA2 (CONCENTRATION 0.65 micromolar) came to 50%. For the same compound, the inhibition at 0.7 µM on cPLA2 (CONCENTRATION 0.7 micromolar) amounted to 50%. Further, at cPLA2 (CONCENTRATION 0.75 micromolar), the inhibition at 0.75 µM turned out to be 50%. On cPLA2 (CONCENTRATION 0.95 micromolar), the inhibition at 0.95 µM was determined as 50%. For the same compound, on cPLA2, the inhibition at 2.5 µM was found to be 73% and the inhibition at 6.25 µM is 81%.
